From a melting point compilation (Tetko et al.; mined from patent text by program, amines drawn as free bases though some values may be those of a salt)

Row | Structure (SMILES) | melting point [°C]
1 | CCC(=C(c1ccccc1)c1ccc(C=CC(=O)O)cc1)c1ccccc1 | 148 to 150
2 | CC(C)(C#N)c1cc(CO)cc(C(C)(C)C#N)c1 | 151 to 153
3 | COC(=O)C(C)c1ccc(OCCNC(=O)C2Cc3ccccc3N2S(=O)(=O)c2ccc(-c3cccc(C(F)(F)F)c3)cc2)cc1 (stereo not given) | 71 to 74
4 | Cn1cc(-c2ccc3ncn(Cc4ccc5ncccc5c4)c3n2)cn1 | 150 to 152
5 | N#Cc1cc(C#N)cc(Oc2ccnc(Oc3cc(Cl)cc(Cl)c3)n2)c1 | 196
6 | COc1cc(OS(C)(=O)=O)ccc1C1=NC2=NC=NC(=O)C2=N1 | 288 to 291
7 | CNS(=O)(=O)N1C[C@H](SC(c2ccccc2)(c2ccccc2)c2ccccc2)C[C@H]1COCc1ccccc1 | 140 to 142
8 | N=C(NO)c1ccc(-c2cccc(-c3nc4cc(C(=N)NO)ccc4[nH]3)c2O)cc1 | 322 to 325
9 | COC(=O)c1c(-c2ccc(C)cc2)c2cc(OCc3ccccc3)ccc2c(=O)n1CC(C)C | 142 to 143
10 | COC(=O)N1CC1C(N)=O (stereo not given) | 117 to 120
11 | CCOc1ccc(-c2cc3ccccc3[nH]2)cc1OC | 177
12 | C#Cc1ccc2c(c1)C(Cc1ccnc(F)c1)(Cc1ccnc(F)c1)c1cccnc1-2 | 139 to 140
13 | CC(C)(C)OC(=O)Nc1nc(/C(=N/OC(c2ccccc2)(c2ccccc2)c2ccccc2)C(=O)O)cs1 | 157 to 158
14 | CC(OC(=O)OCC(=O)N(C)C)OC(=C1C(=O)N(C(N)=O)c2cc(Cl)c(F)cc21)c1cccs1 (stereo not given) | 194 to 196
15 | Cc1ccc(S(=O)(=O)Nc2ccc(F)cc2)cc1 | 78 to 79.5
16 | CCN(CC)C(=O)c1sc(Cl)nc1C(F)(F)F | 40 to 41
17 | CN1CC=C(c2c[nH]c3ccc(N)cc23)C(F)C1 (stereo not given) | 176 to 178
18 | Cc1cc([Si](C)(C)C)c(C)cc1[Si](C)(C)C | 56 to 57.5
19 | CCC(n1cncn1)C(O)(Cn1cncn1)c1c(F)cccc1F (stereo not given) | 110 to 111
20 | C[Si](C)(C)OC(CCl)(Cn1ccnc1)c1ccc(F)cc1F (stereo not given) | 88 to 89
21 | C1=C(c2ccccc2)CCN(Cc2cc3ccccc3[nH]2)C1 | 128 to 130
22 | OC1(c2ccc3[nH]cc(CCN4CCCC4)c3c2)CCCCC1 | 66 to 78

Row | Structure (SMILES) | melting point [°C]
23 | CSc1ccc(-c2coc3ccc(C(=O)NN)nc23)cc1 | 240 to 241
24 | CCc1nc(/C=C/c2cn(-c3ccccc3)nc2OCc2ccc(OCc3nc(-c4ccc(C(=O)O)o4)oc3C)c(OC)c2)cs1 | 154 to 155
25 | CC1CCNC(C)C1(C)CCCO (stereo not given) | 89 to 91
26 | CC1(C)Nc2ncc(I)cc2NC1=O | > 300
27 | COC(=O)Cc1ccc(OCCNC(=O)C2Cc3ccccc3N2S(=O)(=O)c2ccc(-c3cc(C(F)(F)F)ccc3OC)cc2)cc1 (stereo not given) | 61 to 64
28 | O=C(C=C(c1cc(Cl)cc(Cl)c1)C(F)(F)F)c1ccc(C(=O)Nc2ncc(Cl)cn2)cc1 | 71 to 76
29 | CCSCCCCCSCCCCC(=O)O | 49.5 to 50
30 | CCCCCCCCS(=O)(=O)Nc1ccccc1Oc1ccccc1C(=O)O | 100 to 102
31 | CC(=O)Nc1ccc(NCCNS(C)(=O)=O)cc1 | 130
32 | CCN(CC)CCOc1ccn2nc(-c3ccccc3)c(-c3ccc(=O)n(C(C)C)n3)c2c1 | 92.5 to 94.5
33 | CN(C(=O)c1cc(C(F)(F)F)cc(C(F)(F)F)c1)C(CC(=O)O)Cc1ccc2ccccc2c1 (stereo not given) | 128 to 130
34 | CC1(C)OC(c2ccc(S(C)(=O)=O)cc2)=C(c2cccc(C(F)(F)F)c2)C1=O | 115 to 116
35 | CCOC(=O)c1ccc(-c2ccnc(Nc3cc(OC)c(OC)c(OC)c3)n2)cc1 | 181 to 182
36 | COc1ccc(S(=O)(=O)NC(C)c2ccccc2-c2ccc(F)cc2F)cc1 (stereo not given) | 154 to 155
37 | CCCCC[C@H]1CC[C@H](CCCCc2ccc(C#N)cc2)CC1 | 51
38 | CN(C)C=Cc1c(N)cc([N+](=O)[O-])cc1[N+](=O)[O-] | 105 to 107
39 | O=C(Nc1ccc(-c2cnc(-c3ccc(NC(=O)C45CC6CC(CC(C6)C4)C5)cc3)[nH]2)cc1)c1cccnc1 | 251 to 252
40 | CCCCOc1cc(C)c(N=Nc2ccccc2)c(C)c1 | 47 to 47.5
41 | CC1(C)CC(NC(=O)C(=O)NCCO)CC(C)(C)N1OC1CCCCC1 | 190 to 192
42 | CCOC(=O)C(C)Sc1ncnc2c(O)n(C)nc12 (stereo not given) | 127 to 131
43 | CSC(Nc1ccc(NC(=O)OC(C)(C)C)cc1)=C(C#N)C#N | 190
44 | CCOc1nnc(NCc2ccc(OC)c(Cl)c2)c2cc(Cl)ccc12 | 111 to 115

Second part, the compound after the results:

Row | melting point [°C] | Structure (SMILES)
45 | 94 | CCOP(=O)(OCC)C1CCNc2ccc(C(F)(F)F)cc21 (stereo not given)
46 | 55 to 57 | CC1(c2cccc(C3(O)CCCCC3)c2)OCCO1
47 | 189 to 191 | CN(C)S(=O)(=O)c1ccc(C(F)(F)F)cc1S(N)(=O)=O
48 | 160 to 161 | N#CCCNC(=O)c1cccc(-c2ccc3c(c2)N(Cc2cccc(Cl)c2Cl)CC3)c1
49 | 87 to 88 | CC(C)(C)OC(=O)NCCSc1cc(-c2ccccc2)on1
50 | 222 to 223 | O=C1CCC(c2ccc(-n3cccc3)cc2)=NN1
51 | 105 to 108 | Cc1ccc(-c2ccc(NC(=O)OC(C)(C)C)c([N+](=O)[O-])c2)cc1
52 | 99.5 to 101 | C#CCOC(=O)CCC(C)(c1ccc(O)cc1)c1ccc(O)cc1
53 | 260 | CCCC(=O)Nc1n[nH]c2cc(Cl)c(-c3ccncc3)cc12
54 | 70 to 78 | COC(=O)CNc1ccccc1C#N
55 | 107 to 110 | COc1cc(N)c2c(c1)C(=O)CCN2
56 | 78 to 80 | CCOC(=O)C1=C(COCCNC(=O)N2CCN(C)CC2)NC(C)=C(C(=O)OC)C1c1ccccc1Cl (stereo not given)
57 | 232 to 234 | CCCC(=O)Nc1ccc(C2=NNC(=O)NC2C)cc1 (stereo not given)
58 | 188 to 190 | NC(=O)CNc1ncccc1NC(=O)c1ccccn1
59 | 65 to 68 | COC(CNC(=O)c1ccc(N2CCN(C(=O)c3ccccc3C(F)(F)F)CC2)nn1)C(C)(C)C (stereo not given)
60 | 210 to 212 | O=C(O)c1cccc(C2Oc3ccccc3C(O)=C2Cc2ccccc2)c1 (stereo not given)
61 | 152 | Nc1ccc(C(=O)c2ccncc2)cc1
62 | 208 to 212 | N#Cc1c(NC(=O)C2CCCCC2)sc(-c2ccccc2)c1C#N
63 | 184 to 186 | CC(=O)Oc1ccc(CN/C=C2\C(=O)NC(=O)c3ccccc32)cc1OC(C)=O

Row | melting point [°C] | Structure (SMILES)
64 | 242 | O=C(O)c1cc(-n2c(-c3ccccc3)cc3c4ccccc4ccc32)ccc1O
65 | 99 to 101 | C=C1N(c2cccc3ccccc23)C(=O)OC12CCN(CCC=C(c1ccc(F)cc1)c1ccc(F)cc1)CC2
66 | 133 | COc1ccc(CN2C(=O)C(C)(c3ccccc3Cl)c3cc(OC)ccc32)c(OC)c1 (stereo not given)
67 | 185 to 186 | CN1C(=O)CCn2nc(-c3ccc(F)cc3)c(-c3ccncc3)c21
68 | 74.5 to 75 | CC(Oc1ccc(O)cc1)C(=O)Nc1ccc(OC(F)(F)F)cc1 (stereo not given)
69 | > 300 | CN(C)c1ccc(-c2c(O)c3ccc(Cl)cc3[nH]c2=O)cc1
70 | 174 to 177 | O=C(O)C1CCCC(NC(=O)C(CS)Cc2ccccc2)C1 (stereo not given)
71 | 198 to 201 | Cc1nn(-c2cc(OC(C)C(=O)NS(=O)(=O)c3cccc4c3OC(C)(C)C4)c(Cl)cc2F)c(=O)n1C(F)F (stereo not given)
72 | 190 to 192 | COCc1nc2c(N)nc3cc(CCC(=O)N4CCS(=O)(=O)CC4)ccc3c2n1CC(C)(C)O
73 | 121 to 122 | COc1ccc(C=O)cc1OCc1nc(-c2ccccc2)oc1C
74 | 208 to 210 | Cc1nc(O)nc(C)c1N1CCCn2c1nc1c(Cl)ccc(C(OC(F)F)C(F)(F)F)c12 (stereo not given)
75 | 66 | CCCCc1nc(Cl)c(CC(=O)OCC)c(Cc2ccc(-c3ccccc3C#N)cc2)n1
76 | 173 to 174 | NC(=O)CCCCC1(c2ccccc2)CC(O)=CC(=O)O1 (stereo not given)
77 | 163 to 165 | CCOCc1nc2c(N)nc3ccccc3c2n1CC1(OCCS(C)(=O)=O)CCCC1
78 | 139 | Clc1cccc2c3c([nH]c12)-c1ccccc1C3
79 | 113 to 115 | CCSC(C#N)C1=NCCc2cc(OC)c(OC)cc21 (stereo not given)
80 | 220 to 223 | CCCc1ccc(-c2ccc(-c3ccc(O)cc3)nn2)cc1
81 | 153 to 155 | O=C1SCNc2sccc21
82 | 186 | O=CN1CCc2cc(O)ccc2C1

Row | melting point [°C] | Structure (SMILES)
83 | 251 to 252 | COc1ccc(N2CCN(c3ccc(-n4c(C)n[nH]c4=O)cn3)CC2)cc1
84 | 113 to 115 | CC(C)OC(=O)c1cc(-n2c(=O)c3c(n(C)c2=O)CCCC3)c(F)cc1Cl
85 | 271 | FC(F)(F)c1ccc(Cl)cc1CN1CCNc2ncc(-c3cn[nH]c3)cc21
86 | 218 to 220 | CCN(C(=O)c1ccccc1C(c1ccc(O)cc1)c1ccc(O)cc1)c1cccc(C)c1
87 | 139 to 142 | CC(=O)N1CCC(C(=NN)c2ccc(F)cc2F)CC1
88 | 211 to 213 | CCC(NC(=O)C(F)F)c1ccc(Cl)c2nc3n(c12)CCCN3c1c(Cl)cc(Cl)cc1Cl (stereo not given)
89 | 32 to 33 | O=C1C=C(Cc2ccccc2)CC1
90 | 59 to 61 | CN(C)C(=O)C1=NO[C@@H](c2ccccc2)C1
91 | 240 to 242 | CCS(=O)(=O)c1nc2c(cc1F)c(=O)c(C(=O)O)cn2C1CC1
92 | 64 to 68 | Cc1cc(CC2SCNC2=O)cc(C(C)(C)C)c1O (stereo not given)
93 | 110 | COC(=O)C1Oc2ccc(Cl)cc2C(Cc2ccccc2)(c2ccccc2)O1 (stereo not given)
94 | 195 to 196 | COC(=O)CCc1cc2c(OC)cccc2n1Cc1ccccc1
95 | 201 to 203 | CC(=O)Oc1ccc2c(c1)C(=O)NC(C(Cl)(Cl)Cl)O2 (stereo not given)
96 | 319 to 320 | CC1Oc2c(cc(Cl)cc2C(=O)O)NC1=O (stereo not given)
97 | 108 to 109 | Nc1ccccc1C(=O)N1CCN(CCc2ccc(Cl)cc2)CC1
98 | > 225 | O=C(O)c1cccc2c(Br)c(O)ccc12
99 | 140 to 142 | COc1ccc(C2CCN(c3c(C)c(C)c4c(c3C)C(O)C(C)(C)O4)CC2)cc1OC (stereo not given)
100 | 74 | CC(CCc1cccc(Cl)c1)NC(=O)n1nc(N(C)C)n(N)c1=O (stereo not given)
